Source: patent US11813239B2, “Compositions and methods for improving cardiac structure and/or function” (Wisconsin Alumni Research Foundation, priority 2020, dated 2023)

Columns and labels:
[1] = tested on: cardiomyocytes; assay: Immunostaining (pH3, Aurora B), WGA and trichrome staining after MI in P7 mice; conditions: MI at P7, dimethyl malonate 100 mg/kg daily for 2 weeks from birth, 21 days post-MI
Description: We then analyzed the hearts following injury to determine whether malonate results in prolongation of the neonatal regenerative window (FIG. 5A). To examine whether malonate stimulates cardiomyocyte proliferation, we performed MI in 7-day-old mice and analyzed their hearts at 7 days post-MI by immunostaining for markers of proliferation.
Neonatal mice at postnatal day 1 (P1) or day 7 (P7) were used for myocardial infarction (MI) surgery. Neonatal mice were subjected to MI surgeries as previously described. Briefly, neonates were anesthetized by hypothermia on ice. Lateral thoracotomy at the fourth intercostal space was performed by blunt dissection of the intercostal muscles after skin incision. A C-1 tapered needle attached to a 6-0 prolene suture (Ethicon Inc., Bridgewater, N.J.) was passed through the mid-ventricle below the left anterior descending coronary artery (LAD) and tied off to induce MI. The prolene suture was used to suture the ribs together and seal the chest wall incisions, and the skin was closed using adhesive glue (3M). The mice then were warmed on a heating pad until recovery. Sham-operated mice underwent the same procedure including hypothermic anesthesia, but not LAD ligation.
Neonatal mice were weighed and injected daily with either saline, 100 mg/kg dimethyl succinate (Sigma), 100 mg/kg dimethyl malonate (Sigma), or 100 μg/kg Atpenin A5 (Enzo Life Sciences). Dimethyl succinate and dimethyl malonate were dissolved in saline. Stock solution of Atpenin A5 at 0.1 mg/ml was initially prepared by dissolving in DMSO (Sigma) and then further diluted with saline before injection. Saline was used as a vehicle control for all experiments.
Hearts were harvested and fixed in 4% paraformaldehyde (PFA) in PBS solution overnight at 4° C., processed for paraffin embedding, and sectioned in intervals. Masson's trichrome staining was performed according to the manufacture's protocol (Newcomer Supply, Middleton, WI). Scar size measurements were quantified from at least 3 sections of the heart from ligature to apex. ImageJ was used to quantify the fibrotic scar, and the average scar area for each heart was plotted.
We injected dimethyl malonate (100 mg/kg, daily) in neonatal mice directly after birth for 2 weeks with an MI performed once the mice reached P7.

[2] = tested on: tricarboxylic acid (TCA) cycle and glucose metabolism; assay: LC-MS metabolite analysis of adult hearts
Protocol: Saline was used as a vehicle control for all experiments. […] Adult mice were injected intraperitoneally daily with either saline or 100 mg/kg dimethyl malonate post-MI for 2 or 4 weeks.
To analyze intracellular metabolites, metabolites were extracted with cold liquid chromatography-mass spectrometry (LC-MS) grade 3/1 butanol/methanol (v/v). The methanol layer was transferred to a new vial and samples were dried under nitrogen flow and subsequently dissolved in LC-MS grade water for LC-MS analysis methods. Protein pellets were removed by centrifugation. Samples were analyzed using a Thermo Q-Exactive mass spectrometer coupled to a Vanquish Horizon Ultra-High Performance Liquid Chromatograph (UHPLC). Metabolites were separated on a C18 (details below) at a 0.2 ml per min flow rate and 30° C. column temperature. […] The identification of metabolites reported was based on exact m/z and retention times, which were determined with chemical standards. Data were analyzed with Maven. Relative metabolite levels were normalized to internal standard Tryptophan (^13C11) and expressed relative to levels measured in the control group.
To determine whether SDH inhibition regulates cardiomyocyte cell cycle activity by modulating succinate levels, we measured the levels of intracellular succinate by liquid chromatography-mass spectrometry (LC-MS). […]

COC(=O)CC(=O)OC [Malonate, dimethyl malonate]
cardiomyocyte cell size (wheat germ agglutinin staining) [1]: significant reduction in cardiomyocyte cell size | structural regeneration and fibrosis (trichrome staining) ([1]; vs saline controls): complete heart regeneration | intracellular succinate levels in the heart (LC-MS) ([2]; adult MI, dimethyl malonate 100 mg/kg daily, 14 days post-MI): significant increase in succinate levels | succinate levels (LC-MS metabolomics) ([2]; adult mice treated for 2 weeks with dimethyl malonate, vs saline): increase in succinate levels
